23 compounds from patent US10342819B2, “Oligonucleotide having non-natural nucleotide at 5′-terminal thereof” (Kyowa Hakko Kirin Co., Ltd., priority 2014, dated 2019) can be followed below.

For one assay, the target named is T1, AGO2-MID domain (Homo sapiens, UniProt Q9UKV8).
T1 construct: mixed with an equal amount of a 5 μg/mL AGO2-MID domain solution
In words: Biacore competition experiment of nucleotide (monomer) for the AGO2-MID domain (Test Examples 7 and 8). Particulars: Test Example 7; 2.5 μg/mL AGO2-MID domain solution containing the monomer at 100 μM; read-out: inhibition rate (%) (100 μM AGO2-MID domain solutions). Format: binding. As for the experimental part: HBS-EP+ 10× was diluted to 10-fold with pure water, and DTT was added thereto to give a final concentration of 2 mM, followed by filtration through a filter to prepare an HBS-EP+ 2 mM DTT aqueous solution. To this solution, dimethyl sulfoxide (DMSO) was added to give a final concentration of 1%, whereby a running buffer was prepared.
A monomer solution dissolved in DMSO or distilled water was diluted to 200 μM, 40 μM, 8 μM, and 1.6 μM/(2% DMSO, HBS-EP+, 2 mM DTT), and each of the diluted solutions was mixed with an equal amount of a 5 μg/mL AGO2-MID domain solution diluted with the HBS-EP+2 mM DTT solution, whereby 2.5 μg/mL AGO2-MID domain solutions containing the monomer at 100 μM, 20 μM, 4 μM, and 0.8 μM, respectively, were prepared as the HBS-EP+, 2 mM DTT, 1% DMSO solution.
A competition experiment by the siRNA was performed using a chip immobilized dT(16)-Biotin oligo thereon in the same manner as in Test Example 6. The flow rate is set to 30 μL/minute throughout the experiment, and one cycle is performed as follows: binding for 60 seconds, dissociation for 5 seconds, and regeneration 1 M NaCl for 5 seconds.
In order to stabilize the machine, the first 10 cycles are performed by adding only HBS-EP+, and thereafter, the measurement is performed for each monomer in the order of HBS-EP+(BLANK), a 2.5 μg/mL AGO2-MID domain solution (CONTROL), and 2.5 μg/mL AGO2-MID domain solutions (Sample) containing the monomer at 100 μM, 20 μM, 4 μM, and 0.8 μM, respectively, and a 2.5 μg/mL AGO2-MID domain solution (CONTROL). In the analysis, the binding level of the graph obtained by subtracting the graph for blank immobilization from the graph for the immobilized cell is used, and the residual binding ratio (%) is calculated according to ([Sample]−[BLANK])/([CONTROL]−[BLANK])×100, and the inhibition ratio (%) is calculated according to 100−(residual binding ratio).
In Table 36, the inhibition ratios (%) of 8-Br-dA (Compound I-1) and 5-fluoro-2′-deoxyuridine monophosphate (Compound I-4), and for comparison thereof, the inhibition ratios (%) of adenosine monophosphate (AMP) and uridine monophosphate (UMP) are shown.
A word on the inhibition: it is the change of the read-out against control, counted positive when it falls. Take `Nc1ncnc2c1nc(Br)n2[C@H]1C[C@H](O)[C@@H](COP(=O)(O)O)O1` [compound I-1, 8-bromo-2′-deoxyadenosine monophosphate]: the inhibition at 100 µM is 68.6%.

Staying with this assay, now noted: Test Example 8; 2.5 μg/mL AGO2-MID domain solution containing the monomer at 100 μM; read-out: inhibition rate (%) (100 μM AGO2-MID domain solutions).
As to `O=c1[nH]c(=O)n([C@@H]2O[C@H](COP(=O)(O)O)[C@@H](O)[C@H]2O)c2ccc([N+](=O)[O-])cc12` [compound I-23, ((2R,3S,4R,5R)-3,4-Dihydroxy-5-(6-nitro-2,4-dioxo-3,4-dihydroquinazolin-1(2H)-yl)tetrahydrofuran-2-yl)methyl phosphate], the inhibition at 100 µM was found to be 85.2%.

Regarding `Cc1c(C#N)n([C@@H]2O[C@H](COP(=O)(O)O)[C@@H](O)[C@H]2O)c(=O)[nH]c1=O` [compound I-24, ((2R,3S,4R,5R)-5-(6-cyano-5-methyl-2,4-dioxo-3,4-dihydropyrimidin-1 (2H)-yl)-3,4-dihydroxytetrahydrofuran-2-yl)methyl phosphate], the inhibition at 100 µM worked out at 88.4%.

With `O=P(O)(O)OC[C@H]1O[C@@H](n2c(Br)nc3c(/C=C/c4ccccc4)ncnc32)[C@H](O)[C@@H]1O` [compound I-18, ((2R,3S,4R,5R)-5-(8-Bromo-6-((E)-styryl)-9H-purin-9-yl)-3,4-dihydroxytetrahydrofuran-2-yl)methyl phosphate], the inhibition at 100 µM came out at 97.8%.

In the case of `Cc1sc2c(c1C)c(=O)[nH]c(=O)n2[C@@H]1O[C@H](COP(=O)(O)O)[C@@H](O)[C@H]1O` [compound I-19, ((2R,3S,4R,5R)-5-(5,6-Dimethyl-2,4-dioxo-3,4-dihydrothieno [2,3-d]pyrimidin-1 (2H)-yl)-3,4-dihydroxytetrahydrofuran-2-yl)methyl phosphate], the inhibition at 100 µM was 89.7%.

In the case of `O=Cc1cccc(-c2ncnc3c2ncn3[C@@H]2O[C@H](COP(=O)(O)O)[C@@H](O)[C@H]2O)c1` [compound I-22, ((2R,3S,4R,5R)-3,4-Dihydroxy-5-(6-(3-formylphenyl)-9H-purin-9-yl)tetrahydrofuran-2-yl)methyl phosphate], the inhibition at 100 µM is 91.6%.

In the case of `CN(C)c1ncnc2c1nc(Br)n2[C@@H]1O[C@H](COP(=O)(O)O)[C@@H](O)[C@H]1O` [compound I-11, ((2R,3S,4R,5R)-6-(8-bromo-6-(dimethylamino)-9H-purin-9-yl)-3,4-dihydroxytetrahydrofuran-2-yl)methyl phosphate], the inhibition at 100 µM was found to be 60.9%.

On to `Cc1cc(=O)[nH]c(=O)n1[C@@H]1O[C@H](COP(=O)(O)O)[C@@H](O)[C@H]1O` [compound I-34, ((2R,3S,4R,5R)-3,4-Dihydroxy-5-(6-methyl-2,4-dioxo-3,4-dihydropyrimidin-1(2H)-yl)tetrahydrofuran-2-yl)methyl phosphate], for which the inhibition at 100 µM worked out at 31.8%.

Regarding `O=c1[nH]c(=O)n([C@@H]2O[C@H](COP(=O)(O)O)[C@@H](O)[C@H]2O)c2cc(Cl)ccc12` [compound I-7, ((2R,3S,4R,5R)-5-(7-Chloro-2,4-dioxo-3,4-dihydroquinazolin-1(2H)-yl)-3,4-dihydroxytetrahydrofuran-2-yl)methyl phosphate], the inhibition at 100 µM came out at 71.7%.

Regarding `O=c1[nH]c(=O)n([C@@H]2O[C@H](COP(=O)(O)O)[C@@H](O)[C@H]2O)c2cc(Cl)c([N+](=O)[O-])cc12` [compound I-35, ((2R,3S,4R,5R)-5-(7-Chloro-6-nitro-2,4-dioxo-3,4-dihydroquinazolin-1(2H)-yl)-3,4-dihydroxytetrahydrofuran-2-yl)methyl phosphate], the inhibition at 100 µM came to 88%.

With `O=P(O)(O)OC[C@H]1O[C@@H](n2cnc3c(-c4ccc5ccccc5c4)ncnc32)[C@H](O)[C@@H]1O` [compound I-21, ((2R,3S,4R,5R)-3,4-Dihydroxy-5-(6-(naphthalen-2-yl)-9H-purin-9-yl)tetrahydrofuran-2-yl)methyl phosphate], the inhibition at 100 µM was 78.2%.

With `CN(C)c1cc2c(cc1[N+](=O)[O-])c(=O)[nH]c(=O)n2[C@@H]1O[C@H](COP(=O)(O)O)[C@@H](O)[C@H]1O` [compound I-36, ((2R,3S,4R,5R)-5-(7-(Dimethylamino)-6-nitro-2,4-dioxo-3,4-dihydroquinazolin-1(2H)-yl)-3,4-dihydroxytetrahydrofuran-2-yl)methyl phosphate], the inhibition at 100 µM was determined as 91.6%.

As to `O=c1[nH]c(=O)n([C@@H]2O[C@H](COP(=O)(O)O)[C@@H](O)[C@H]2O)c2ccsc12` [compound I-9, (2R,3S,4R,5R)-5-(2,4-Dioxo-3,4-dihydrothieno[3,2-d]pyrimidin-1(2H)-yl)-3,4-dihydroxytetrahydrofuran-2-yl)methyl phosphate], the inhibition at 100 µM stood at 70.9%.

In the case of `O=c1[nH]c(=O)n([C@@H]2O[C@H](COP(=O)(O)O)[C@@H](O)[C@H]2O)cc1-c1ncco1` [compound I-15, ((2R,3S,4R,5R)-3,4-Dihydroxy-5-(5-(oxazol-2-yl)-2,4-dioxo-3,4-dihydropyrimidin-1(2H)-yl)tetrahydrofuran-2-yl)methyl phosphate], the inhibition at 100 µM worked out at 73%.

Consider `O=P(O)(O)OC[C@H]1O[C@@H](n2cnc3c(-c4cccc5ccccc45)ncnc32)[C@H](O)[C@@H]1O` [compound I-25, ((2R,3S,4R,5R)-3,4-Dihydroxy-5-(6-(naphthalen-1-yl)-9H-purin-9-yl)tetrahydrofuran-2-yl)methyl phosphate], for which the inhibition at 100 µM worked out at 33.9%.

As to `CC(C)c1cccc(-c2ncnc3c2ncn3[C@@H]2O[C@H](COP(=O)(O)O)[C@@H](O)[C@H]2O)c1` [compound I-20, ((2R,3S,4R,5R)-3,4-dihydroxy-5-(6-(3-isopropylphenyl)-9H-purin-9-yl)tetrahydrofuran-2-yl)methyl phosphate], the inhibition at 100 µM came out at 76.9%.

For the compound `O=c1[nH]c(=O)n([C@@H]2O[C@H](COP(=O)(O)O)[C@@H](O)[C@H]2O)cc1-c1ccccn1` [compound I-14, ((2R,3S,4R,5R)-5-(2,4-Dioxo-5-(pyridin-2-yl)-3,4-dihydropyrimidin-1 (2H)-yl)-3,4-dihydroxytetrahydrofuran-2-yl)methyl phosphate], the inhibition at 100 µM came to 63.3%.

For the compound `O=C(O)c1cccc(-c2ncnc3c2ncn3[C@@H]2O[C@H](COP(=O)(O)O)[C@@H](O)[C@H]2O)c1` [compound I-30, ((2R,3S,4R,5R)-5-(6-(3-(carboxy)phenyl)-9H-purin-9-yl)-3,4-dihydroxytetrahydrofuran-2-yl)methyl phosphate], the inhibition at 100 µM came to 73.2%.

Take `O=P(O)(O)OC[C@H]1O[C@@H](n2cnc3c(-c4cccc(-c5ccccc5)c4)ncnc32)[C@H](O)[C@@H]1O` [compound I-26, ((2R,3S,4R,5R)-5-(6-(Biphenyl-3-yl)-9H-purin-9-yl)-3,4-dihydroxytetrahydrofuran-2-yl)methyl phosphate]: the inhibition at 100 µM came out at 82.4%.

With `O=c1[nH]c(=O)n([C@@H]2O[C@H](COP(=O)(O)O)[C@@H](O)[C@H]2O)cc1/C=C/c1ccccc1` [compound I-31, ((2R,3S,4R,5R)-5-(2,4-Dioxo-5-styryl-3,4-dihydropyrimidin-1(2H)-yl)-3,4-dihydroxytetrahydrofuran-2-yl)methyl phosphate], the inhibition at 100 µM came out at 73.6%.

In the case of `O=c1cc(I)n([C@@H]2O[C@H](COP(=O)(O)O)[C@@H](O)[C@H]2O)c(=O)[nH]1` [compound I-13, ((2R,3S,4R,5R)-5-(6-Iodo-2,4-dioxo-3,4-dihydropyrimidin-1(2H)-yl)-3,4-dihydroxytetrahydrofuran-2-yl)methyl phosphate], the inhibition at 100 µM turned out to be 63.4%.

As to `Cc1cn([C@@H]2O[C@H](COP(=O)(O)O)[C@@H](O)[C@H]2O)c(=O)[nH]c1=O` [compound I-33, ((2R,3S,4R,5R)-3,4-Dihydroxy-5-(5-methyl-2,4-dioxo-3,4-dihydropyrimidin-1(2H)-yl)tetrahydrofuran-2-yl)methyl phosphate], the inhibition at 100 µM worked out at 82.9%.

The assay is the same for the next values; noted with them: conclusion from Test Example 7.
Regarding `Nc1ncnc2c1nc(Br)n2[C@H]1C[C@H](O)[C@@H](COP(=O)(O)O)O1` [compound I-1, 8-bromo-2′-deoxyadenosine monophosphate], the “affinity for AGO2 (inhibition ratio) compared with adenosine monophosphate or uridine monophosphate” value is reported as “higher affinity for AGO2”.

Staying with this assay, now noted: read-out: inhibition rate (%) (100 μM AGO2-MID domain solutions).
For `N#Cc1cc(=O)[nH]c(=O)n1[C@@H]1O[C@H](COP(=O)(O)O)[C@@H](O)[C@H]1O` [compound I-17, ((2R,3S,4R,5R)-5-(6-Cyano-2,4-dioxo-3,4-dihydropyrimidin-1(2H)-yl)-3,4-dihydroxytetrahydrofuran-2-yl)methyl phosphate], the inhibition at 100 µM was 86%.
